Values quoted from earlier work as cited in patent US20060222695A1, “Deoxycholic acid liposome-based dermatological topical preparation” (priority 2005, published 2006).

Test system: cell cultures and tissue specimen
Conditions: similar to the effects of laboratory detergents

For `C[C@H](CCC(=O)O)[C@H]1CC[C@H]2[C@@H]3CC[C@@H]4C[C@H](O)CC[C@]4(C)[C@H]3C[C@H](O)[C@]12C` [Deoxycholic acid], the “effect on cells and fat tissue” value is given as “loss of cell viability, cell membrane lysis and disruption of fat architecture”.
